According to patent publication US4560758A, “Process for preparing pyrrolo[1,2-a]imidazoles and imidazo[1,2-a]pyridines” (Pennwalt Corporation, priority 1984, dated 1985):
Where “and” joins values, the source holds several entries; their conditions need not be identical. Identical values can stand only once. Counter-ions that a name gives are not always drawn.

Tests used:
[1] = system: antibody secreting cells in the spleen; assay: Kennedy Plaque Assay (humoral immune system depressed by 6-mercaptopurine; number of plaques); format: in vivo; conditions: ip; 60 mg/Kg of 6 MP plus 6.25 mg/Kg (i.p.) of compound; read-out: Percent Restoration (+) or Suppression (-)
Procedure: In this assay, in which the in vitro model used was the Kennedy modification of the Jerne (or plaque) technique (J. C. Kennedy et al, Immunol., 20, p. 253 (1971)), the animal's humoral immune system is depressed artificially by the known immunosuppressant drug, 6-mercaptopurine (6-MP), and then the ability of a drug to either suppress it further or restore it towards normal is evaluated. The change in the number of plaques, which is a direct correlate of the change in the number of antibody secreting cells in the spleen, is used to measure this effect. For example, the compound of Example 11 results in greater than 100% restoration of the number of plaques and thus causes an immunoenhancement of the humoral system. In contrast, the compound of Example 28 results in about 24% further suppression of the number of plaques and thus behaves as an immunosuppressant.
of 6 MP plus 6.25 mg/Kg (i.p.)
^1 without 6MP treatment
^2 percent change from control (i.e., without 6MP)

[2] = system: carrageenan-induced paw edemas; assay: Anti-inflammatory assay, carrageenan-induced paw edema; format: in vivo, Male, Sprague-Dawley rats
Procedure: The anti-inflammatory properties of various compounds of this invention were determined by carrageenan-induced paw edemas of test rats. Male, Sprague-Dawley rats (Blue Spruce Farm) were ordered at 125-140 g, housed for one week, and allowed food and water ad libitum. At the time of the experiments, only rats weighing 160-200 g were used.
All compounds were dissolved or suspended in a 0.5% water solution of Methocel and orally administered to groups of six rats each. Control rats received Methocel only. Two hours later (unless otherwise stated), paw edema was induced by subcutaneous injection into the plantar surface of the right hind paw of 0.1 ml of a 1.0% homogenized suspension of carrageenan.
Immediately, the volume of the paw was measured by immersing it in mercury to above the lateral mateolus. The mercury in a glass cylinder 25 mm in diameter and 60 mm deep was connected at the bottom on the cylinder by a column of water to a Statham transducer (model P23BB), range 0-5 cm of mercury pressure. The volume was recorded electronically on a Beckman recorder, R511. Three hours later, the inflamed paw volume was measured again, and the change in volume was recorded for each group. The percent inhibition of edema was calculated using the control group paw volume as 100% edema, i.e., as (the change in edema in the control group less the change in edema in the test group) times 100 divided by the change in edema in the control group.

[3] = system: mouse hepatitis virus; assay: Antiviral assay - hepatitis in mice; format: in vivo; conditions: once daily for 3 days; for Mean Liver Score: day 4, 0 (normal) to 4 (extreme discoloration); for Percent Survival: day 21
Procedure: Female mice weighing approximately 21-24 grams were inoculated with 0.1 ml of a mouse liver suspension containing mouse hepatitis virus, which liver suspension is at a dilution of 10^-5.5. Starting twenty-four hours post-virus inoculation, the animals were intraperitoneally ("i.p.") or orally administered the test compound(s) once daily for 3 days. On day 4, one third to one half of each group of mice were sacrificed and their liver removed for examination. Each liver was scored and assigned a number from 0 (normal liver) to 4 (extreme discoloration). The mean liver score per group was computed. The number of animals surviving until termination of the study (day 21) was also recorded. Anti-hepatitis activity is evidenced by increased survivor numbers and improved liver scores.

**Q.** Which results are given for `Clc1cccc(Cl)c1SC1CCCN2CC(c3ccccc3)N=C12` (centres unmarked) [Example 20, 2,3,5,6,7,8-Hexahydro-2-phenyl-8-(2,6-dichlorophenylthio)imidazo[1,2-a]pyridine hydrochloride]?
**A.** change in vivo at 6.25 mg/kg [1]: -49%; Percent Inhibition of carrageenan induced edema ([2]; 100 mg/Kg p.o., dosed two hours before carrageenan, hydrochloride): 33.3% and 39.6%

**Q.** With `COC1(OC)CCCN2CC(c3ccccc3)N=C21` (centres unmarked) [Example 23, 2,3,5,6,7,8-Hexahydro-2-phenyl-8,8-dimethoxyimidazo [1,2-a]pyridine hydrochloride] as the compound, how does the change in vivo at 6.25 mg/kg [1] read?
**A.** The change in vivo at 6.25 mg/kg was 64%.

**Q.** What about the “Percent Inhibition of carrageenan induced edema” value ([2]; 50 mg/Kg p.o., 20 hrs. predosed) of the same compound?
**A.** The value was 32.1%.

**Q.** What about the “Percent Inhibition of carrageenan induced edema” value ([2]; 50 mg/Kg p.o., dosed two hours before carrageenan) of the same compound?
**A.** The value was -3.2%.

**Q.** And the “Mean Liver Score” value ([3]; 6.25 mg/Kg i.p., control 2.6)?
**A.** The value was 1.7.

**Q.** And the “Percent Survival” value ([3]; 6.25 mg/Kg i.p., control 5%)?
**A.** Its value is 40%.

**Q.** What about the “Mean Liver Score” value ([3]; 12.5 mg/Kg i.p., control 2.6 (Examples 11, 16, 23), 3.4 (25, 26)) of the same compound?
**A.** The value was 1.0.

**Q.** What about the “Percent Survival” value ([3]; 12.5 mg/Kg i.p., control 5% (Examples 11, 16, 23), 6% (25, 26)) of the same compound?
**A.** The value was 70%.

**Q.** What about the “Mean Liver Score” value ([3]; 25 mg/Kg i.p., control 2.6 (Examples 11, 23), 3.4 (25, 26)) of the same compound?
**A.** Its value is 1.3.

**Q.** What about the “Percent Survival” value ([3]; 25 mg/Kg i.p., control 5% (Examples 11, 23), 6% (25, 26)) of the same compound?
**A.** Its value is 50%.
